Assay results: patent US20180099931A1 (AbbVie S.à.r.l., priority 2016, published 2018)
Where two headings read alike, the source gives them in different places.

Target: T1, F508delCFTR (Homo sapiens, UniProt P13569, DEL508-508)
T1 construct: expressed in transfected cells; host or cells: CFBE41o- human lung-derived epithelial cells (CFBE4lo-F508delCFTR-HRP), doxycycline-inducible
Experiment: Cell Surface Expression-Horse Radish Peroxidase (CSE-HRP) Assay;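 as to Maximum % activity (with co-corrector): co-corrector and positive control are both the same reference corrector at 2 µM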;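 as to Maximum % activity (without co-corrector): percent of the 2 µM on-plate positive control corrector response above DMSO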
Assay type: cell-based
Details: for Emax / Maximum % activity (with co-corrector): maximum at any tested concentration, normalized to on-plate positive control; for Emax: read-out: Maximum % activity (without co-corrector)

[1] = test compound without co-corrector
[2] = test compound without co-corrector, read-out: EC50 (without co-corrector)
[3] = with co-corrector (2 μM of 3-[(2R,4R)-4-({[1-(2,2-difluoro-1,3-benzodioxol-5-yl)cyclopropyl]carbonyl}amino)-7-methoxy-3,4-dihydro-2H-chromen-2-yl]benzoic acid), read-out: EC50 (with co-corrector)
[4] = with co-corrector (2 μM of 3-[(2R,4R)-4-({[1-(2,2-difluoro-1,3-benzodioxol-5-yl)cyclopropyl]carbonyl}amino)-7-methoxy-3,4-dihydro-2H-chromen-2-yl]benzoic acid)
[5] = CSE-HRP, test compound without co-corrector, read-out: EC50 (without co-corrector)
[6] = CSE-HRP, with co-corrector (2 μM of 3-[(2R,4R)-4-({[1-(2,2-difluoro-1,3-benzodioxol-5-yl)cyclopropyl]carbonyl}amino)-7-methoxy-3,4-dihydro-2H-chromen-2-yl]benzoic acid), read-out: EC50 (with co-corrector)
[7] = CSE-HRP, with co-corrector (2 μM)

T1 sequence (P13569 with tags, fused parts or gaps DEL508-508): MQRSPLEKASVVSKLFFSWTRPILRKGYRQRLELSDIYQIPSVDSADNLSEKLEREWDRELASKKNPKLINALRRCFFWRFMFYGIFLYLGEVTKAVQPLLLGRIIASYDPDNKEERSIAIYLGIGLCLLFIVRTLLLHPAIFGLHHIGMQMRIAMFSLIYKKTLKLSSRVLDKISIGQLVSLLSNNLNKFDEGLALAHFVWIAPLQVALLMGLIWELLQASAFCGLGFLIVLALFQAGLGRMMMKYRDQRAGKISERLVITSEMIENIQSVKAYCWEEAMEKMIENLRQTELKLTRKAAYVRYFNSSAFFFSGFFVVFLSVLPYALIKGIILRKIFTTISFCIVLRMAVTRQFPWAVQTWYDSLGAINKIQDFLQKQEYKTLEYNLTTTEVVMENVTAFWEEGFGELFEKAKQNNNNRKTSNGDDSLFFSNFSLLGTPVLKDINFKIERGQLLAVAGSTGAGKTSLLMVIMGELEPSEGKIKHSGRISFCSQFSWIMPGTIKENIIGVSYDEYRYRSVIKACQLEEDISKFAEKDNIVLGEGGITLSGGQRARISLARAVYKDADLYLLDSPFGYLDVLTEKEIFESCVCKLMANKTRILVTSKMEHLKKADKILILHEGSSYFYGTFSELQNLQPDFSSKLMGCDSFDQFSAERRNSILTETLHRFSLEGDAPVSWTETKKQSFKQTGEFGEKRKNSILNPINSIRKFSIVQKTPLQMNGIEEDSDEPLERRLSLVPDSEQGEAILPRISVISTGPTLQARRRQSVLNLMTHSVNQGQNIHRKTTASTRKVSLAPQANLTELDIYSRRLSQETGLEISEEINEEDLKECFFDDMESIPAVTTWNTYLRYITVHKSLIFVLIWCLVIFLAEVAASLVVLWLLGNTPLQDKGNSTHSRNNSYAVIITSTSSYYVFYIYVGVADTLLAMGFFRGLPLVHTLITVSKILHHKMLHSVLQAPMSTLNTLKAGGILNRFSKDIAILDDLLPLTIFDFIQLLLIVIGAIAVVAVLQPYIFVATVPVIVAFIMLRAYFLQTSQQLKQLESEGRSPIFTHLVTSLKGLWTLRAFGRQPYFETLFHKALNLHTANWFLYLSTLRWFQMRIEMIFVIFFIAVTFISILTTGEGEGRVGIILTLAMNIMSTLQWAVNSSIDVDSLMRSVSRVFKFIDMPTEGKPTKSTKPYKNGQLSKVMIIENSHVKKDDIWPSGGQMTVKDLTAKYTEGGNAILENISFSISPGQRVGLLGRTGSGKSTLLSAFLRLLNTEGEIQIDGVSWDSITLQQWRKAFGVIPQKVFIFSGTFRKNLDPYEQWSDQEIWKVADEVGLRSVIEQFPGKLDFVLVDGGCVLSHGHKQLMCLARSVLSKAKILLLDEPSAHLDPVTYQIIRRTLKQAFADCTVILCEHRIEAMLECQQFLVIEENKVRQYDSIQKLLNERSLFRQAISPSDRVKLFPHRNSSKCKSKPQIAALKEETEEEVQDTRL

Emax [1]	EC50 [2]	EC50 [3]	Maximum % activity (with co-corrector) (with co-corrector (2 μM))	Maximum % activity (with co-corrector) [4]	Emax (without co-corrector)	EC50 [5]	EC50 [6]	Maximum % activity (with co-corrector) [7]	Emax (CSE-HRP, without co-corrector)	Maximum % activity (with co-corrector) (with co-corrector (2 μM of 3-[(2R,4R)-4-({[1-(2,2-difluoro-1,3-benzodioxol-5-yl)cyclopropyl]carbonyl}amino)-7-methoxy-3,4-dihydro-2H-chromen-2-yl]benzoic acid), 2 µM)	SMILES
100 to 200%	1 to 10 µM	< 1 µM	+++ (≥350)								COc1ccc(C(C)(C)C)cc1CN[C@H]1[C@H](C(C)(C)C)[C@@H](C(=O)O)N(C(=O)Cc2ccc(Cl)cc2)[C@H]1c1ccccc1 [III-166]
< 100%	1 to 10 µM	1 to 10 µM		+++ (≥350)							COc1ccc(Cl)cc1CN[C@@H]1[C@@H](C(C)(C)C)[C@H](C(=O)O)N(C(=O)C2CCCCC2)[C@@H]1c1ccccn1 (racemic) [III-61]
	1 to 10 µM	< 1 µM	+++ (≥350)		100 to 200%						COc1cc(C(F)(F)F)ccc1CN[C@H]1[C@H](C(C)(C)C)[C@@H](C(=O)O)N(C(=O)C2CCCCC2)[C@H]1c1cccnc1OC [Example I-39]
100 to 200%	< 1 µM	< 1 µM		+++ (≥350)							COc1cccc(-c2cnc(OC)c(CN[C@H]3[C@H](C(C)(C)C)[C@@H](C(=O)O)N(C(=O)C4CCCCC4)[C@H]3c3ccccc3)c2)c1 [Example II-341, (2S,3S,4S,5S)-3-(tert-butyl)-1-(cyclohexanecarbonyl)-4-(((2-methoxy-5-(3-methoxyphenyl)pyridin-3-yl)methyl)amino)-5-phenylpyrrolidine-2-carboxylic acid]
> 200%	1 to 10 µM	< 1 µM		+++ (≥350)							COc1ccc(C(F)(F)F)cc1CN[C@H]1[C@H](C(C)(C)C)[C@@H](C(=O)O)N(C(=O)OC(C)C)[C@H]1c1ccccc1C [II-581]
						1 to 10 µM	1 to 10 µM	+++ (≥350)	< 100%		COc1ccc(C(C)(C)C)cc1CN[C@H]1[C@H](C(C)(C)C)[C@@H](C(=O)O)N(C(=O)c2cc(Cl)c(=O)n(C(C)C)c2)[C@H]1c1ccccc1 [II-223]
< 100%	1 to 10 µM	1 to 10 µM		++ (≥150 and <350)							CC(C)OC(=O)N1[C@H](c2ccccc2)[C@H](Nc2cccc(C(F)(F)F)n2)[C@@H](C(C)(C)C)[C@@H]1C(=O)O (racemic) [III-44]
	1 to 10 µM	1 to 10 µM	+++ (≥350)		< 100%						COc1cc(Cl)nc(N[C@@H]2[C@@H](C(C)(C)C)[C@H](C(=O)O)N(C(=O)C3CCCCC3)[C@@H]2c2ccccc2)n1 (racemic) [Example I-2]
						< 1 µM	< 1 µM	+++ (≥350)	100 to 200%		COc1ccc(C(C)(C)C)cc1CN[C@H]1[C@H](C(C)(C)C)[C@@H](C(=O)O)N(C(=O)c2onc3ccccc23)[C@H]1c1ccccc1 [II-231]
< 100%	> 10 µM	> 10 µM	+ (<150)								COc1ccc(C(C)(C)C)cc1CN[C@H]1[C@H](C(C)(C)C)[C@@H](C(=O)O)N(C(=O)c2cn(C)cc(C)c2=O)[C@H]1c1ccccc1 [III-176]
100 to 200%	1 to 10 µM	< 1 µM		+++ (≥350)							COc1cc(C(F)(F)F)ccc1CN[C@@H]1[C@@H](C(C)(C)C)[C@H](C(=O)O)N(C(=O)C2CCCCC2)[C@@H]1c1ccccc1 (racemic) [III-35]
< 100%	1 to 10 µM	1 to 10 µM	++ (≥150 and <350)								CC(C)(C)[C@H]1[C@H](NCc2cc3c(cc2Cl)OCO3)[C@H](c2ccccc2)N(C(=O)C2CCCCC2)[C@@H]1C(=O)O [III-142]
						1 to 10 µM	1 to 10 µM	+++ (≥350)	> 200%		COc1ccc(-c2ccco2)cc1CN[C@H]1[C@H](C(C)(C)C)[C@@H](C(=O)O)N(C(=O)C2CCCCC2)[C@H]1c1ccccc1 [II-291]
	< 1 µM	< 1 µM	+++ (≥350)		< 100%						COc1ncc(C(F)(F)F)cc1CN[C@H]1[C@H](C(C)(C)C)[C@@H](C(=O)O)N(C(=O)C2CCCCC2)[C@H]1c1ccccc1F [Example I-110]
						1 to 10 µM	1 to 10 µM	+++ (≥350)	100 to 200%		COc1cc(C(F)(F)F)ccc1CN[C@H]1[C@H](C(C)(C)C)[C@@H](C(=O)O)N(C(=O)[C@@H](OC)c2ccccc2)[C@H]1c1ccccc1 [II-65]
						1 to 10 µM	1 to 10 µM	+++ (≥350)	< 100%		COc1ccc(C(C)(C)C)cc1CN[C@H]1[C@H](C(C)(C)C)[C@@H](C(=O)O)N(C(=O)[C@@]2(C)COc3cc4c(cc32)OC(F)(F)O4)[C@H]1c1cccnc1OC [Example I-254]
	1 to 10 µM	< 1 µM	+++ (≥350)		100 to 200%						COc1ccc(C(C)C)cc1CN[C@H]1[C@H](C(C)(C)C)[C@@H](C(=O)O)N(C(=O)C2CCCCC2)[C@H]1c1ccccc1F [Example I-111]
	1 to 10 µM	1 to 10 µM	+++ (≥350)		100 to 200%						COc1ccc(-c2sc(C)nc2C)cc1CN[C@H]1[C@H](C(C)(C)C)[C@@H](C(=O)O)N(C(=O)C2CCCCC2)[C@H]1c1ccccc1 [Example I-127]
						1 to 10 µM	1 to 10 µM	+++ (≥350)	> 200%		COc1ccc(C(C)(C)C)cc1CN[C@@H]1[C@@H](C(C)(C)C)[C@H](C(=O)O)N(C(=O)OC(C)C)[C@@H]1c1ccccc1 (racemic) [II-43]
						> 10 µM	1 to 10 µM	++ (≥150 and <350)	< 100%		COc1ccc(C(F)(F)F)cc1CN[C@@H]1[C@@H](C(C)(C)C)[C@H](C(=O)O)N(C(=O)[C@@H](OC)c2ccccc2)[C@@H]1c1ccccc1 [II-64]
						1 to 10 µM	1 to 10 µM	+++ (≥350)	> 200%		COc1ccc(C(C)(C)C)cc1CN[C@H]1[C@H](C(C)(C)C)[C@@H](C(=O)O)N(C(=O)[C@@H]2OCC[C@@H]2C)[C@H]1c1ccccc1 (relative stereo) [II-268]
	< 1 µM	< 1 µM	+++ (≥350)		100 to 200%						COc1ccc(S(F)(F)(F)(F)F)cc1CN[C@H]1[C@H](C(C)(C)C)[C@@H](C(=O)O)N(C(=O)C2CCCCC2)[C@H]1c1ccccc1 [Example I-86]
	1 to 10 µM	< 1 µM	+++ (≥350)		> 200%						COc1ccc(C(C)(C)C)cc1CN[C@H]1[C@H](C(C)(C)C)[C@@H](C(=O)O)N(C(=O)c2c(C)nn(-c3ccccc3F)c2C)[C@H]1c1ccccc1 [Example I-146]
						1 to 10 µM	1 to 10 µM	+++ (≥350)	100 to 200%		CC(C)(C)[C@H]1[C@H](Nc2cc(C#N)cnc2Cl)[C@H](c2ccccc2)N(C(=O)C2CCCCC2)[C@@H]1C(=O)O [II-145]
	1 to 10 µM	1 to 10 µM	+++ (≥350)		100 to 200%						COc1cc(C(F)(F)F)ccc1CN[C@H]1[C@H](C(C)(C)C)[C@@H](C(=O)O)N(C(=O)C2CCCCC2)[C@H]1c1cccnc1N(C)C [Example I-44]
	1 to 10 µM	< 1 µM	+++ (≥350)		> 200%						COc1ccc(C(C)(C)C)cc1CN[C@H]1[C@H](C(C)(C)C)[C@@H](C(=O)O)N(C(=O)[C@@H]2CCCCO2)[C@H]1c1ccccc1Br [Example 113, (2S,3S,4S,5S)-5-(2-bromophenyl)-3-tert-butyl-4-{[(5-tert-butyl-2-methoxyphenyl)methyl]amino}-1-[(2S)-oxane-2-carbonyl]pyrrolidine-2-carboxylic acid]
						1 to 10 µM	1 to 10 µM	+++ (≥350)	> 200%		COc1ncc(C2CCC2)cc1CN[C@H]1[C@H](C(C)(C)C)[C@@H](C(=O)O)N(C(=O)[C@@H]2CCCCO2)[C@H]1c1cccc2c1OCC2 [Example I-301]
< 100%	1 to 10 µM	1 to 10 µM	++ (≥150 and <350)								COc1ccc(-c2cnn(C)c2)cc1CN[C@H]1[C@H](C(C)(C)C)[C@@H](C(=O)O)N(C(=O)C2CCCCC2)[C@H]1c1ccccc1 [III-186]
100 to 200%	1 to 10 µM	1 to 10 µM								+++ (≥350)	COc1ccc(C(C)(C)C)cc1CN[C@H]1[C@H](C(C)(C)C)[C@@H](C(=O)O)N(C(=O)C2CCc3ccc(F)cc3O2)[C@H]1c1cccnc1N(C)C (single isomer, unassigned) [II-452]
						1 to 10 µM	1 to 10 µM	+++ (≥350)	100 to 200%		COc1cc(C(F)(F)F)ccc1CN[C@H]1[C@H](C(C)(C)C)[C@@H](C(=O)O)N(C(=O)[C@H](OC)c2ccccc2)[C@H]1c1cccnc1OC [II-84]
